We go through two molecules from US20250332178A1, “METHODS OF TREATING MYCOBACTERIAL INFECTIONS USING TETRACYCLINE COMPOUNDS” (priority 2018, published 2025).

Values after ≈ are worked out from the molar mass of the structure shown.

One data set concerns M. avium. Nature of the data set: MIC (CLSI broth dilution), slow-growing NTM isolates. The format is cell-based. On the technique in general: Dilution methods test growth across graded concentrations, often in twofold steps.
For the next data set, the system named is M. chimaera. Described as above. The format is cell-based.
A further data set concerns M. intracellulare. Described as above. Type of data set: cell-based.
The subject of data set [1] is M. abscessus subsp. abscessus CIP 104536. Type of data set: cell-based. The settings on record: at 4 mg/L, after 7 days of drug exposure; subculture plates 16 mg/L.
For data set [2] the following is noted: daily; previously shown (Bax et al.); cited from earlier work.

Turning to `NCC[C@H](O)C(=O)N[C@@H]1C[C@H](N)[C@@H](O[C@H]2O[C@H](CN)[C@@H](O)[C@H](O)[C@H]2O)[C@H](O)[C@H]1O[C@H]1O[C@H](CO)[C@@H](O)[C@H](N)[C@H]1O` [Amikacin, amikacin], the minimum inhibitory concentration (MIC) against M. avium (isolate 1, MAC) worked out at 32 µg/mL (≈ 54.6 µM); against M. avium (isolate 2, MAC), 16 µg/mL (≈ 27.3 µM); in the data set with M. avium (isolate 3, MAC), 8 µg/mL (≈ 13.7 µM); against M. chimaera (isolate 4, MAC), 8 µg/mL (≈ 13.7 µM); in the data set with M. chimaera (isolate 5, MAC), 8 µg/mL (≈ 13.7 µM); with M. intracellulare (isolate 6, MAC), 8 µg/mL (≈ 13.7 µM). Besides, the MIC against M. intracellulare (isolate 7, MAC) came to 8 µg/mL (≈ 13.7 µM); in the data set with M. intracellulare (isolate 8, MAC), 16 µg/mL (≈ 27.3 µM); against M. intracellulare (isolate 9, MAC), 16 µg/mL (≈ 27.3 µM); with M. intracellulare (isolate 10, MAC) it was 16 µg/mL (≈ 27.3 µM).

On to `CN(C)c1cc(NC(=O)CNC(C)(C)C)c(O)c2c1C[C@H]1C[C@H]3[C@H](N(C)C)C(O)=C(C(N)=O)C(=O)[C@@]3(O)C(O)=C1C2=O` [Tigecycline, tigecycline], for which, in data set [1], the “selection of drug resistance above the spontaneous mutation frequency” value is 0.6%. Moreover, the decline in concentration in data set [2] is 80%.

Usually MIC stands for the least concentration at which growth counts as inhibited. Higher therefore signals a need for much substance.
